According to ChEMBL document CHEMBL3046845, “A facile synthesis of novel optically active R,R-2-(4-(2-(4-(5-chloro-3-halo-pyridin-2-yloxy)-phenoxy)-propionyloxy)-phenoxy)-propionic acid esters using cyanuric chloride as potential herbicide” (Chin Chem Lett, 2011):

What was measured:
Avena fatua = assay: Herbicidal activity against Avena fatua assessed as growth inhibition at 125 g/ha after 3 weeks relative to control; format: functional; settings: 504 h, read-out: GI
Echinochloa crus-galli = assay: Herbicidal activity against Echinochloa crus-galli (barnyard grass) assessed as growth inhibition at 125 g/ha after 3 weeks relative to control; format: functional; settings: 504 h, read-out: GI
Alopecurus myosuroides = assay: Herbicidal activity against Alopecurus myosuroides assessed as growth inhibition at 125 g/ha after 3 weeks relative to control; format: functional; settings: 504 h, read-out: GI
[1] = Phytoxicity against Hordeum vulgare (barley) assessed as growth inhibition at 125 g/ha after 3 weeks relative to control; format: organism-based; settings: in vivo, read-out: GI
[2] = Phytotoxicity against Triticum aestivum (wheat) assessed as growth inhibition at 125 g/ha after 3 weeks relative to control; format: organism-based; settings: in vivo, read-out: GI

COC(=O)[C@@H](C)Oc1ccc(Oc2ncc(Cl)cc2F)cc1
inhibition of growth at 125 g/ha (Avena fatua): 90% | inhibition of growth at 125 g/ha (Echinochloa crus-galli): 80% | inhibition of growth at 125 g/ha (Alopecurus myosuroides): 75% | inhibition at 504 h [1]: 35% | inhibition at 504 h [2]: 10%

COC(=O)[C@@H](C)Oc1ccc(OC(=O)[C@@H](C)Oc2ccc(Oc3ncc(Cl)cc3F)cc2)cc1
inhibition of growth at 125 g/ha (Avena fatua): 90% | inhibition of growth at 125 g/ha (Echinochloa crus-galli): 80% | inhibition of growth at 125 g/ha (Alopecurus myosuroides): 80% | inhibition at 504 h [1]: 10% | inhibition at 504 h [2]: 0%

CCOC(=O)[C@@H](C)Oc1ccc(Oc2ncc(Cl)cc2F)cc1
inhibition of growth at 125 g/ha (Avena fatua): 90% | inhibition of growth at 125 g/ha (Echinochloa crus-galli): 75% | inhibition of growth at 125 g/ha (Alopecurus myosuroides): 82% | inhibition at 504 h [1]: 27% | inhibition at 504 h [2]: 5%

CCOC(=O)[C@@H](C)Oc1ccc(OC(=O)[C@@H](C)Oc2ccc(Oc3ncc(Cl)cc3F)cc2)cc1
inhibition of growth at 125 g/ha (Avena fatua): 93% | inhibition of growth at 125 g/ha (Echinochloa crus-galli): 80% | inhibition of growth at 125 g/ha (Alopecurus myosuroides): 90% | inhibition at 504 h [1]: 10% | inhibition at 504 h [2]: 0%

CCCOC(=O)[C@@H](C)Oc1ccc(Oc2ncc(Cl)cc2F)cc1
inhibition of growth at 125 g/ha (Avena fatua): 84% | inhibition of growth at 125 g/ha (Echinochloa crus-galli): 62% | inhibition of growth at 125 g/ha (Alopecurus myosuroides): 76% | inhibition at 504 h [1]: 35% | inhibition at 504 h [2]: 10%

CCCOC(=O)[C@@H](C)Oc1ccc(OC(=O)[C@@H](C)Oc2ccc(Oc3ncc(Cl)cc3F)cc2)cc1
inhibition of growth at 125 g/ha (Avena fatua): 89% | inhibition of growth at 125 g/ha (Echinochloa crus-galli): 70% | inhibition of growth at 125 g/ha (Alopecurus myosuroides): 79% | inhibition at 504 h [1]: 15% | inhibition at 504 h [2]: 0%

CC(C)OC(=O)[C@@H](C)Oc1ccc(Oc2ncc(Cl)cc2F)cc1
inhibition of growth at 125 g/ha (Avena fatua): 81% | inhibition of growth at 125 g/ha (Echinochloa crus-galli): 57% | inhibition of growth at 125 g/ha (Alopecurus myosuroides): 73% | inhibition at 504 h [1]: 30% | inhibition at 504 h [2]: 10%

CC(C)OC(=O)[C@@H](C)Oc1ccc(OC(=O)[C@@H](C)Oc2ccc(Oc3ncc(Cl)cc3F)cc2)cc1
inhibition of growth at 125 g/ha (Avena fatua): 85% | inhibition of growth at 125 g/ha (Echinochloa crus-galli): 65% | inhibition of growth at 125 g/ha (Alopecurus myosuroides): 78% | inhibition at 504 h [1]: 12% | inhibition at 504 h [2]: 0%

CCCCOC(=O)[C@@H](C)Oc1ccc(Oc2ncc(Cl)cc2F)cc1
inhibition of growth at 125 g/ha (Avena fatua): 62% | inhibition of growth at 125 g/ha (Echinochloa crus-galli): 55% | inhibition of growth at 125 g/ha (Alopecurus myosuroides): 54% | inhibition at 504 h [1]: 25% | inhibition at 504 h [2]: 15%

CCCCOC(=O)[C@@H](C)Oc1ccc(OC(=O)[C@@H](C)Oc2ccc(Oc3ncc(Cl)cc3F)cc2)cc1
inhibition of growth at 125 g/ha (Avena fatua): 63% | inhibition of growth at 125 g/ha (Echinochloa crus-galli): 54% | inhibition of growth at 125 g/ha (Alopecurus myosuroides): 62% | inhibition at 504 h [1]: 10% | inhibition at 504 h [2]: 5%

C#CCOC(=O)[C@@H](C)Oc1ccc(OC(=O)[C@@H](C)Oc2ccc(Oc3ncc(Cl)cc3F)cc2)cc1
inhibition of growth at 125 g/ha (Avena fatua): 100% | inhibition of growth at 125 g/ha (Echinochloa crus-galli): 92% | inhibition of growth at 125 g/ha (Alopecurus myosuroides): 100% | inhibition at 504 h [1]: 0% | inhibition at 504 h [2]: 0%

COC(=O)[C@@H](C)Oc1ccc(Oc2ncc(Cl)cc2Cl)cc1
inhibition of growth at 125 g/ha (Avena fatua): 30% | inhibition of growth at 125 g/ha (Echinochloa crus-galli): 40% | inhibition of growth at 125 g/ha (Alopecurus myosuroides): 30% | inhibition at 504 h [1]: 30% | inhibition at 504 h [2]: 10%

COC(=O)[C@@H](C)Oc1ccc(OC(=O)[C@@H](C)Oc2ccc(Oc3ncc(Cl)cc3Cl)cc2)cc1
inhibition of growth at 125 g/ha (Avena fatua): 43% | inhibition of growth at 125 g/ha (Echinochloa crus-galli): 44% | inhibition of growth at 125 g/ha (Alopecurus myosuroides): 42% | inhibition at 504 h [1]: 15% | inhibition at 504 h [2]: 0%

CCOC(=O)[C@@H](C)Oc1ccc(Oc2ncc(Cl)cc2Cl)cc1
inhibition of growth at 125 g/ha (Avena fatua): 50% | inhibition of growth at 125 g/ha (Echinochloa crus-galli): 51% | inhibition of growth at 125 g/ha (Alopecurus myosuroides): 45% | inhibition at 504 h [1]: 25% | inhibition at 504 h [2]: 10%

CCOC(=O)[C@@H](C)Oc1ccc(OC(=O)[C@@H](C)Oc2ccc(Oc3ncc(Cl)cc3Cl)cc2)cc1
inhibition of growth at 125 g/ha (Avena fatua): 54% | inhibition of growth at 125 g/ha (Echinochloa crus-galli): 54% | inhibition of growth at 125 g/ha (Alopecurus myosuroides): 52% | inhibition at 504 h [1]: 15% | inhibition at 504 h [2]: 0%

CCCOC(=O)[C@@H](C)Oc1ccc(Oc2ncc(Cl)cc2Cl)cc1
inhibition of growth at 125 g/ha (Avena fatua): 45% | inhibition of growth at 125 g/ha (Echinochloa crus-galli): 40% | inhibition of growth at 125 g/ha (Alopecurus myosuroides): 35% | inhibition at 504 h [1]: 18% | inhibition at 504 h [2]: 15%

CCCOC(=O)[C@@H](C)Oc1ccc(OC(=O)[C@@H](C)Oc2ccc(Oc3ncc(Cl)cc3Cl)cc2)cc1
inhibition of growth at 125 g/ha (Avena fatua): 50% | inhibition of growth at 125 g/ha (Echinochloa crus-galli): 45% | inhibition of growth at 125 g/ha (Alopecurus myosuroides): 36% | inhibition at 504 h [1]: 10% | inhibition at 504 h [2]: 0%

C#CCOC(=O)[C@@H](C)Oc1ccc(Oc2ncc(Cl)cc2Cl)cc1
inhibition of growth at 125 g/ha (Avena fatua): 47% | inhibition of growth at 125 g/ha (Echinochloa crus-galli): 45% | inhibition of growth at 125 g/ha (Alopecurus myosuroides): 57% | inhibition at 504 h [1]: 20% | inhibition at 504 h [2]: 0%

C#CCOC(=O)[C@@H](C)Oc1ccc(OC(=O)[C@@H](C)Oc2ccc(Oc3ncc(Cl)cc3Cl)cc2)cc1
inhibition of growth at 125 g/ha (Avena fatua): 50% | inhibition of growth at 125 g/ha (Echinochloa crus-galli): 53% | inhibition of growth at 125 g/ha (Alopecurus myosuroides): 60% | inhibition at 504 h [1]: 5% | inhibition at 504 h [2]: 0%

C#CCOC(=O)[C@@H](C)Oc1ccc(Oc2ncc(Cl)cc2F)cc1 [CLODINAFOP PROPARGYL]
inhibition of growth at 125 g/ha (Avena fatua): 95% | inhibition of growth at 125 g/ha (Echinochloa crus-galli): 82% | inhibition of growth at 125 g/ha (Alopecurus myosuroides): 88% | inhibition at 504 h [1]: 20% | inhibition at 504 h [2]: 0%
